Measurements: US20260023070A1, “OPTOGENETIC ALPHA-SYNUCLEIN AGGREGATION SYSTEM-BASED COMPOUND SCREENING PLATFORM IN PD-hiPSC-mDA NEURONS” (The Johns Hopkins University, priority 2022, published 2026)

Legend:
tau-PFF injected mice = experiment: tau-PFF injected mice, AT8 immunofluorescence in dentate gyrus; assay type: in vivo
Experimental: To find in vivo efficacy in a pilot exponential set and set a drug dosage, an in vivo experiment with the tau-PFF injected mice with DMSO or BAG treatment ([…]) was performed. Intraperitoneal injection of different concentrations (0, 5, 10 mg/kg) of BAG was given for one month, once every two days. Immunofluorescence staining results of AT8 in the dentate gyrus of C57bl/6j mice (3 per group) after injection of K18-tau PFF (5 μg/kg) into the hippocampus for two months was performed (data not shown).

α-syn PFF injected mice = experiment: In vivo intrastriatal α-syn PFF mouse model, oral BAG 956 (behaviour, histology, biochemistry); details: short-term: two months at 2 mg/kg or one month at 10 mg/kg after intrastriatal α-syn PFF injection
[1] = tested on: PI3K-PDK1/AKT/mTOR signaling pathway; experiment: PI3K/PDK1 downstream target phosphorylation in α-syn PFF-treated mouse primary neurons; assay type: cell-based
From the text: (§1) Since PI3K-PDK1/AKT/mTOR signaling pathway plays a critical role in regulation of autophagy, it was investigated the effects of BAG 956 treatments on PFF models. […] Taken together, BAG 956 may act as an autophagy-enhancing drug through inhibition of the PI3K-PDK1/AKT/mTOR signaling pathway (FIG. 18I).

opto-α-syn-MOs = experiment: Autophagy in opto-α-syn-MOs kept in dark after blue light illumination; assay type: cell-based, human; details: treatment only during dark condition after blue light illumination for six days
Experimental: Because autophagy can be activated by the inhibition of PI 3-kinase (PI3K) or the PDK1 pathway, it was tested whether treatment with BAG 956 can induce the autophagic flux to decrease α-syn aggregates in opto-α-syn mDA neurons and MOs.

[2] = tested on: PI3K-PDK1/AKT/mTOR signaling pathway; experiment: PI3K/PDK1 downstream target phosphorylation in ventral midbrain of α-syn PFF-injected mice; assay type: in vivo, mouse
From the text: as §1

[3] = tested on: opto-α-syn PD hiPSC-derived mDA neurons; experiment: Light-induced α-syn aggregation and neurotoxicity in opto-α-syn PD hiPSC-derived mDA neurons; assay type: cell-based, human; details: blue light 7 days; compared to DMSO control; significant at 1 and 10 nM CDC, 10 and 100 nM BAG
Experimental: Whether these potential hit compounds can inhibit α-syn aggregation and rescue aggregation-induced neuronal toxicity was tested on PD hiPSC-derived mDA neurons. The top 5 ranked small compounds in FIGURE SE were selected and these compounds to were used to treat opto-α-syn PD hiPSC-derived mDA neurons at three different concentrations (1 nM, 10 nM, 100 nM) with blue light stimulation. […] Overall, the two compounds were finally selected among the potential hit drugs from our novel opto-α-syn neuronal cell model-based primary screening (FIG. 11D), and they considerably rescued neuronal cell death from aggregation-induced TH^+ mDA neuron-selective toxicity in PD-iPSC derived neurons. To identify possible molecules involved in this compound-mediated recovery of TH^+ mDA neurons, RNA-sequencing (RNA-seq) analysis was performed with four different samples (dark condition with DMSO, blue light stimulation with DMSO, blue light stimulation with BAG treatment, and blue light stimulation with CDC treatment). To find BAG- or CDC-responsive genes, differentially expressed genes (DEGs) of DMSO-treated samples upon blue light stimulation were first extracted, and then the DEGs were filtered with criteria of which became non-DEGs in response to CDC or BAG treatment. […]
The effect of 5 selected compounds on opto-α-syn-expressing PD hiPSC-derived mDA neurons was evaluated. […]

Cc1nc2cnc3ccc(C#Cc4cccnc4)cc3c2n1-c1ccc(C(C)(C)C#N)cc1 [BAG 956]
toxicity (tau-PFF injected mice; 10 μg/kg dosage as printed): without noticeable toxicity
levels of the AT8+ phosphorylated-tau (tau-PFF injected mice; intraperitoneal, once every two days for one month, 5 and 10 mg/kg): significantly decreased
pathologic pS129-α-syn immunoreactivity in TH neurons of the ventral midbrain (α-syn PFF injected mice): significantly reduced
Phosphorylation of PDK1 downstream targets PI3K, AKT, S6K, and mTOR [1]: significantly reduced
LC3+ puncta and LC3+/5G4+ co-localized dots (opto-α-syn-MOs): consistent
pS473-AKT ([2]; α-syn PFF injected mice, normalized to pan-AKT): reduced
Phosphorylation of PDK1 downstream targets PI3K, AKT, S6K, and mTOR ([2]; α-syn PFF-injected mice, 2 mg/kg or 10 mg/kg): significantly reduced
survival rate of TH+ mDA neurons [3]: significant increase
